Source: ChEMBL document CHEMBL5346863, “Discovery of substituted benzyloxy-benzylamine inhibitors of acetyltransferase Eis and their anti-mycobacterial activity” (Eur J Med Chem, 2022)
≈ marks a conversion by molar mass, not a printed value.

Tested on: Mycobacterium tuberculosis variant bovis
Test: Antibacterial activity against Mycobacterium bovis BCG ATCC 35734 assessed as bacterial growth inhibition incubated for 2 to 3 weeks by resazurin dye based assay
Type: functional
Settings: time 2-3 weeks

Row | Compound | MIC [µM]
1 | Clc1ccc(COc2ccccc2CNCc2ccncc2)cc1 | 62.5 (≈ 21.2 µg/mL)
2 | Fc1ccc(COc2cccc(CNCc3ccncc3)c2)cc1 | > 62.5
3 | Brc1cccc(COc2ccc(CNCc3ccccc3)cc2)c1 | 7.8 (≈ 2.98 µg/mL)
4 | c1ccc(CNCc2ccc(OCc3ccccc3)cc2)cc1 | 31.3 (≈ 9.5 µg/mL)
5 | Clc1cccc(COc2ccccc2CNCc2cccnc2)c1 | 62.5 (≈ 21.2 µg/mL)
6 | Brc1ccc(COc2ccccc2CNCc2ccccc2)cc1 | 62.5 (≈ 23.9 µg/mL)
7 | Fc1ccc(COc2ccc(CNCc3cccnc3)cc2)cc1 | 62.5 (≈ 20.1 µg/mL)
8 | Fc1ccc(COc2cccc(CNCc3ccccc3)c2)cc1 | 7.8 (≈ 2.51 µg/mL)
9 | Clc1ccc(COc2ccc(CNCc3ccccc3)cc2)cc1 | 7.8 (≈ 2.64 µg/mL)
10 | c1ccc(COc2ccc(CNCc3ccncc3)cc2)cc1 | > 62.5
11 | Clc1cccc(COc2ccccc2CNCc2ccccc2)c1 | 15.6 (≈ 5.27 µg/mL)
12 | Clc1ccc(COc2cccc(CNCc3cccnc3)c2)cc1 | 62.5 (≈ 21.2 µg/mL)
13 | c1ccc(CNCc2ccc(OCc3ccc(-c4ccccc4)cc3)cc2)cc1 | 3.9 (≈ 1.48 µg/mL)
14 | c1ccc(COc2ccccc2CNCc2cccnc2)cc1 | > 62.5
15 | c1ccc(COc2ccccc2CNCc2ccncc2)cc1 | > 62.5
16 | Clc1ccc(COc2ccc(CNCc3ccncc3)cc2)cc1 | 31.3 (≈ 10.6 µg/mL)
17 | Brc1ccc(COc2ccc(CNCc3ccccc3)cc2)cc1 | 3.9 (≈ 1.49 µg/mL)
18 | Fc1ccc(COc2ccc(CNCc3ccccc3)cc2)cc1 | > 62.5
19 | Clc1ccc(COc2ccc(CNCc3cccnc3)cc2)cc1 | 62.5 (≈ 21.2 µg/mL)

Row | Compound | MIC [µM]
20 | CC(C)c1ccc(COc2ccc(CNCc3ccccc3)cc2)cc1 | 1 (≈ 0.345 µg/mL)
21 | c1ccc(CNCc2ccccc2OCc2ccccc2)cc1 | 62.5 (≈ 19 µg/mL)
22 | CC(C)(C)c1ccc(COc2ccc(CNCc3ccccc3)cc2)cc1 | 2 (≈ 0.719 µg/mL)
23 | Brc1ccccc1COc1ccc(CNCc2ccccc2)cc1 | 7.8 (≈ 2.98 µg/mL)
24 | Cc1ccc(COc2ccc(CNCc3ccccc3)cc2)cc1 | 3.9 (≈ 1.24 µg/mL)
25 | Brc1ccc(COc2ccccc2CNCc2cccnc2)cc1 | 62.5 (≈ 24 µg/mL)
26 | Fc1ccc(COc2ccccc2CNCc2cccnc2)cc1 | > 62.5
27 | COc1ccc(COc2ccc(CNCc3ccccc3)cc2)cc1 | 7.8 (≈ 2.6 µg/mL)
28 | Clc1ccc(COc2cccc(CNCc3ccccc3)c2)cc1 | 7.8 (≈ 2.64 µg/mL)
29 | Fc1ccc(COc2ccccc2CNCc2ccccc2)cc1 | > 62.5
30 | Clc1ccc(COc2ccccc2CNCc2ccccc2)cc1 | 62.5 (≈ 21.1 µg/mL)
31 | Fc1ccc(COc2ccc(CNCc3ccncc3)cc2)cc1 | 62.5 (≈ 20.1 µg/mL)
32 | NNC(=O)c1ccncc1 [ISONIAZID] | ≤ 0.25
33 | c1ccc(COc2ccc(CNCc3cccnc3)cc2)cc1 | > 62.5
34 | Fc1ccc(COc2cccc(CNCc3cccnc3)c2)cc1 | > 62.5
35 | Brc1ccc(COc2ccccc2CNCc2ccncc2)cc1 | 62.5 (≈ 24 µg/mL)
36 | Clc1cccc(COc2ccccc2CNCc2ccncc2)c1 | > 62.5
37 | Clc1ccc(COc2cccc(CNCc3ccncc3)c2)cc1 | 62.5 (≈ 21.2 µg/mL)
